Test results taken from ChEMBL document CHEMBL4483862, “Open-source discovery of chemical leads for next-generation chemoprotective antimalarials” (2018).

System: Plasmodium berghei
Test: Luciferase/luciferin-expressing antifolate-resistant parasites were used to infect a culture of HepG2 cells that were pre-incubated with compounds. Infected hepatocytes emit light due to the luciferase reaction. Assay results are presented as the percent inhibition of light emission compared to control. […]
Assay type: functional
Conditions: sporozoite; for IC90: read-out: LUCIFERASE INFECTION ASSAY - IC90
[1] = read-out: LUCIFERASE INFECTION ASSAY - IC50

SMILES | IC90 | IC50 [1] | also measured
CN(Cc1ccc(C(F)(F)F)cc1)C(=O)c1cc(Br)ccc1O | > 10 µM | – | IC50 (FFLUC_HILL_SLOPE 1.16, FFLUC_R_SQUARED 0.0567, read-out: LUCIFERASE INFECTION ASSAY - IC50): > 10 µM
COC(=O)c1sccc1N/N=C(\C#N)S(=O)(=O)c1ccc(Cl)cc1 | > 8.6 µM | > 8.6 µM | –
COC(=O)c1c(-c2ccccc2Cl)noc1/C=C/c1c[nH]c(=O)c2c(-c3ccccc3Cl)noc12 | > 6.49 µM | – | IC50 (PBLUC_HILL_SLOPE 1.63, PBLUC_R_SQUARED 0.42, read-out: LUCIFERASE INFECTION ASSAY - IC50): 3.61 µM
COC(=O)c1ccc(CNC(=O)NCCN2c3ccccc3CCC2C)cc1 (stereo not given) | 3.88 µM | – | IC50 (HEPG2TOX_HILL_SLOPE 2.63, HEPG2TOX_R_SQUARED 0.63, PBLUC_HILL_SLOPE 12, PBLUC_R_SQUARED 0.668, read-out: LUCIFERASE INFECTION ASSAY - IC50): 3.23 µM
CCOc1ccc(OCCC(=O)NCc2cccc(C(F)(F)F)c2)cc1 | > 10 µM | > 10 µM | –
COC(=O)c1cccc(S(=O)(=O)Oc2cc3ccccc3cc2C(=O)Nc2cc(C)ccc2OC)c1 | > 10 µM | – | IC50 (FFLUC_HILL_SLOPE 26.2, FFLUC_R_SQUARED 0.533, PBLUC_HILL_SLOPE 4.23, PBLUC_R_SQUARED 0.622, read-out: LUCIFERASE INFECTION ASSAY - IC50): 8.38 µM
Cn1cc(-c2cn3c(-c4ccc(C(C)(C)C)cc4)cnc3cn2)cn1 | > 9.96 µM | – | IC50 (PBLUC_HILL_SLOPE 3.33, PBLUC_R_SQUARED 0.519, read-out: LUCIFERASE INFECTION ASSAY - IC50): 6.79 µM
C[C@@H](C(=O)NNC(=O)c1cccc(S(=O)(=O)N2CCOCC2)c1)N1C(=O)C2CC=CCC2C1=O (stereo not given in full) | > 10 µM | > 10 µM | –
Oc1c(C(Nc2nccs2)c2cccnc2)ccc2cccnc12 (stereo not given) | 3.75 µM | – | IC50 (HEPG2TOX_HILL_SLOPE 1.4, HEPG2TOX_R_SQUARED 0.615, PBLUC_HILL_SLOPE 3.49, PBLUC_R_SQUARED 0.793, read-out: LUCIFERASE INFECTION ASSAY - IC50): 2 µM
COc1ccc(-c2nc(NC(=O)c3ccc4nc[nH]c4c3)sc2C)cc1 | > 10 µM | > 10 µM | –
CCN1C(=O)N(Cc2cccc(OC)c2)C(=O)C12CCN(Cc1cnc(-c3ccccc3)s1)CC2 | > 6.73 µM | – | IC50 (HEPG2TOX_HILL_SLOPE 2.07, HEPG2TOX_R_SQUARED 0.932, PBLUC_HILL_SLOPE 9.26, PBLUC_R_SQUARED 0.304, read-out: LUCIFERASE INFECTION ASSAY - IC50): 5.74 µM
Cc1ccccc1OCC(O)CN(CC(C)C)CC(C)C (stereo not given) | > 10 µM | – | IC50 (PBLUC_HILL_SLOPE 6.96, PBLUC_R_SQUARED 0.782, read-out: LUCIFERASE INFECTION ASSAY - IC50): 8.86 µM
COc1ccc(C)cc1C(C)NC(=O)c1cnn(Cc2ccccc2)c1 (stereo not given) | > 10 µM | > 10 µM | –
Cc1cc(C(=O)CN2CCc3sccc3C2)c(C)n1Cc1cccs1 | > 10 µM | 2.21 µM | –
CC(=O)N[C@H]1[C@@H](OC(C)=O)O[C@H](COC(c2ccccc2)(c2ccccc2)c2ccccc2)[C@@H](OC(C)=O)[C@@H]1OC(C)=O | > 5.6 µM | > 5.6 µM | –
Cc1nc(C(=O)NNC(=O)c2ccc(C(C)(C)C)cc2)cs1 | 6.76 µM | – | IC50 (HEPG2TOX_HILL_SLOPE 1.77, HEPG2TOX_R_SQUARED 0.966, PBLUC_HILL_SLOPE 4.32, PBLUC_R_SQUARED 0.361, read-out: LUCIFERASE INFECTION ASSAY - IC50): 4.06 µM
O=C(COc1ccccc1CSc1ccc(Cl)cc1)N/N=C\c1ccc(Cl)cc1 | > 7.41 µM | – | IC50 (PBLUC_HILL_SLOPE 0.291, PBLUC_R_SQUARED 0.508, read-out: LUCIFERASE INFECTION ASSAY - IC50): > 7.41 µM
COCCNC(=O)c1ccc(C2(CNc3ccc(OC)c(OC)c3)CC2)cc1 | 1.89 µM | – | IC50 (FFLUC_HILL_SLOPE 16.1, FFLUC_R_SQUARED 0.266, PBLUC_HILL_SLOPE 1.26, PBLUC_R_SQUARED 0.621, read-out: LUCIFERASE INFECTION ASSAY - IC50): 0.332 µM
FC(F)(F)c1c(-c2ccccc2)c2cc(Cl)ccc2n1Cc1ccccc1 | > 8.55 µM | – | IC50 (PBLUC_HILL_SLOPE 1.92, PBLUC_R_SQUARED 0.0693, read-out: LUCIFERASE INFECTION ASSAY - IC50): 7.21 µM
CN(C)c1ccc(-c2cnc3cnc(-c4ccc(N)nc4)cn23)cc1 | 8.82 µM | – | IC50 (HEPG2TOX_HILL_SLOPE 7.95, HEPG2TOX_R_SQUARED 0.49, PBLUC_HILL_SLOPE 26.9, PBLUC_R_SQUARED 0.584, read-out: LUCIFERASE INFECTION ASSAY - IC50): 8.12 µM
O=C(/C=C/c1cn(-c2ccccc2)nc1-c1cccnc1)Nc1nc(-c2ccccn2)cs1 | 8.39 µM | 5.33 µM | –
CCCc1noc(CCC(=O)Nc2nc3cc4c(cc3s2)OCCO4)n1 | > 10 µM | > 10 µM | –
Cc1ccc(C(c2cc(Cl)c3cccnc3c2O)N2CCCC2)cc1 (stereo not given) | 4.12 µM | – | IC50 (FFLUC_HILL_SLOPE 12.7, FFLUC_R_SQUARED 0.41, HEPG2TOX_HILL_SLOPE 6.94, HEPG2TOX_R_SQUARED 0.0505, PBLUC_HILL_SLOPE 13.5, PBLUC_R_SQUARED 0.562, read-out: LUCIFERASE INFECTION ASSAY - IC50): 3.5 µM

SMILES | IC90 | IC50 [1] | also measured
O=C1C(=O)N(Cc2ccccc2Cl)c2ccc(F)cc21 | > 11.4 µM | > 11.4 µM | –
O=C(Nc1cccc(Cl)c1)Nc1csc([N+](=O)[O-])c1 | 9.45 µM | – | IC50 (HEPG2TOX_HILL_SLOPE 11, HEPG2TOX_R_SQUARED 0.423, PBLUC_HILL_SLOPE 4.17, PBLUC_R_SQUARED 0.367, read-out: LUCIFERASE INFECTION ASSAY - IC50): 5.58 µM
CC(C)(C)c1ccc(NC(=O)N2CCCN(Cc3ccccc3)CC2)cc1 | > 9.03 µM | 8.75 µM | –
CN(CC(=O)Nc1nc(-c2c[nH]c3ccccc23)cs1)C1CCCCC1 | > 10 µM | > 10 µM | –
Cc1ccc(CSCCNC(=O)c2ccc3c[nH]nc3c2)cc1 | > 10 µM | – | IC50 (PBLUC_HILL_SLOPE 1.22, PBLUC_R_SQUARED 0.508, read-out: LUCIFERASE INFECTION ASSAY - IC50): 4.61 µM
c1ccc2cc(-c3cnc4ccc(NCc5ccncc5)nn34)ccc2c1 | 4.49 µM | – | IC50 (HEPG2TOX_HILL_SLOPE 3.1, HEPG2TOX_R_SQUARED 0.978, PBLUC_HILL_SLOPE 7.42, PBLUC_R_SQUARED 0.525, read-out: LUCIFERASE INFECTION ASSAY - IC50): 3.34 µM
O=C(NC(=S)NN(Cc1ccccc1)c1ccccc1)C12CC3CC(CC(C3)C1)C2 | > 10 µM | > 10 µM | –
Cc1ccc(C(=O)c2ccccc2C(=O)OC(C)C(=O)N(Cc2ccccc2)Cc2ccccc2)cc1 (stereo not given) | 9.62 µM | – | IC50 (HEPG2TOX_HILL_SLOPE 7.35, HEPG2TOX_R_SQUARED 0.243, PBLUC_HILL_SLOPE 15.7, PBLUC_R_SQUARED 0.159, read-out: LUCIFERASE INFECTION ASSAY - IC50): 8.36 µM
CC(C)(C)c1ccc(-c2nnc(SCc3c(Cl)cccc3Cl)n2Cc2ccco2)cc1 | > 6.99 µM | 3.43 µM | –
C=CCc1ccccc1OCC(O)CN1CCN(c2ccccc2OC)CC1 (stereo not given) | > 7.88 µM | > 7.88 µM | –
COc1cncc(-c2cnn3ccc(Nc4ccc(Oc5ccccc5)cc4)nc23)c1 | > 8.06 µM | – | IC50 (HEPG2TOX_HILL_SLOPE 17.9, HEPG2TOX_R_SQUARED 0.509, PBLUC_HILL_SLOPE 0.505, PBLUC_R_SQUARED 0.666, read-out: LUCIFERASE INFECTION ASSAY - IC50): > 8.06 µM
COc1ccc(-c2nc3ccnc(NCc4ccc(Cl)cc4)c3[nH]2)cc1 | 4.74 µM | – | IC50 (PBLUC_HILL_SLOPE 2.99, PBLUC_R_SQUARED 0.272, read-out: LUCIFERASE INFECTION ASSAY - IC50): 2.27 µM
c1cc(-c2cn3c(-c4ccc5c(c4)OCO5)cnc3cn2)cs1 | > 10.3 µM | – | IC50 (PBLUC_HILL_SLOPE 1.82, PBLUC_R_SQUARED 0.105, read-out: LUCIFERASE INFECTION ASSAY - IC50): > 10.3 µM
Cc1ccc(CSc2n[nH]c(=O)n2C2CC3C=CC2C3)cc1 (stereo not given) | > 10.5 µM | > 10.5 µM | –
CC(C)Cn1c(SCc2cn3cc(Cl)ccc3n2)nc2ccccc2c1=O | 7.86 µM | – | IC50 (HEPG2TOX_HILL_SLOPE 1.44, HEPG2TOX_R_SQUARED 0.631, PBLUC_HILL_SLOPE 96, PBLUC_R_SQUARED 0.548, read-out: LUCIFERASE INFECTION ASSAY - IC50): 7.68 µM
O=C(c1ccc(Cl)cc1)N1CCCC(C(=O)N2CCN(Cc3ccc4c(c3)CCO4)CC2)C1 (stereo not given) | > 10 µM | > 10 µM | –
O=C(CSc1nncn1C1CC1)Nc1sc2c(c1C(=O)Nc1ccc(Cl)cc1)CCCC2 | > 10 µM | > 10 µM | –
CC(C)(C)c1ccc(-c2nnc(SCC(=O)N3CCc4ccccc4C3)n2Cc2ccccc2)cc1 | > 10 µM | > 10 µM | –
COc1ccc(CNc2nc3cnc(Nc4cccc(Cl)c4)cc3n2C)cc1OC | 3.92 µM | – | IC50 (HEPG2TOX_HILL_SLOPE 1.65, HEPG2TOX_R_SQUARED 0.962, PBLUC_HILL_SLOPE 14.9, PBLUC_R_SQUARED 0.209, read-out: LUCIFERASE INFECTION ASSAY - IC50): 3.38 µM
Clc1cccc(Cl)c1/C=C/c1cc[nH]n1 | > 13.8 µM | – | IC50 (HEPG2TOX_HILL_SLOPE 3.46, HEPG2TOX_R_SQUARED 0.979, PBLUC_HILL_SLOPE 12.7, PBLUC_R_SQUARED 0.349, read-out: LUCIFERASE INFECTION ASSAY - IC50): 12 µM
OCCNc1nc(Sc2ccc(Cl)cc2)nc2ccccc12 | > 10 µM | > 10 µM | –
O=[N+]([O-])c1cnc(Sc2nc3cc(Cl)ccc3s2)s1 | > 10 µM | – | IC50 (FFLUC_HILL_SLOPE 97.7, FFLUC_R_SQUARED 0.0466, read-out: LUCIFERASE INFECTION ASSAY - IC50): > 10 µM
